{"source": "patent US20220305019A1", "about": "“PARAXANTHINE-BASED COMPOSITIONS FOR PROMOTING WEIGHT LOSS” (Ingenious Ingredients, LP, priority 2021, published 2022)", "assay": "Confidence visual analog scale (VAS) after oral ingestion, crossover, two participants", "type": "in vivo, human", "set-up": "Confidence (Visual Analog Scale) / Confidence VAS MEAN: scale not given here", "details": "100 mg PX", "description": "All supplements were orally ingested with 8 fluid ounces of cold tap water. The order of administration for all interventions was randomized using a random allocation software to ensure randomization and to avoid order effects. After ingestion, participants completed all assessments in an identical fashion 30, 60, 90, 120, and 180 minutes after ingestion of their assigned supplement. All study visits took place between 0600-1000 hours. At least 72 hours of rest took place between each condition."}
{"smiles": "Cn1c(=O)[nH]c2ncn(C)c2c1=O", "note": "[PX, paraxanthine]", "values": [{"measurement": "effect on confidence", "result": "failed to increase confidence"}, {"measurement": "Confidence (Visual Analog Scale)", "setting": "30 min, person one", "result": 70}, {"measurement": "Confidence (Visual Analog Scale)", "setting": "30 min, person two", "result": 70}, {"measurement": "Confidence (Visual Analog Scale)", "setting": "60 min, person one", "result": 80}, {"measurement": "Confidence (Visual Analog Scale)", "setting": "60 min, person two", "result": 70}, {"measurement": "Confidence (Visual Analog Scale)", "setting": "90 min, person one", "result": 89}, {"measurement": "Confidence (Visual Analog Scale)", "setting": "90 min, person two", "result": 65}, {"measurement": "Confidence (Visual Analog Scale)", "setting": "120 min, person one", "result": 81}, {"measurement": "Confidence (Visual Analog Scale)", "setting": "120 min, person two", "result": 75}, {"measurement": "Confidence (Visual Analog Scale)", "setting": "180 min, person one", "result": 90}, {"measurement": "Confidence (Visual Analog Scale)", "setting": "180 min, person two", "result": 70}, {"measurement": "Confidence VAS MEAN", "setting": "Average of both", "result": 76.0}, {"measurement": "Confidence VAS MEAN", "setting": "person one", "result": 82.0}, {"measurement": "Confidence VAS mean Δ vs. PLA", "setting": "person one", "result": "+0.6"}, {"measurement": "Confidence VAS MEAN", "setting": "person two", "result": 70.0}, {"measurement": "Confidence VAS mean Δ vs. PLA", "setting": "person two", "result": "−1.0"}]}
